From patent US20060069132A1, “Azolecarboxamide herbicides” (priority 2004, published 2006)

Tests used:
bermudagrass = test: Test C pre-/postemergence herbicide test; format: in vivo, Cynodon dactylon; conditions: for Plant response rating, Bermudagrass: preemergence; for Bermudagrass plant response rating: Preemergence, 500 g ai/ha
Method in brief: (§1)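 Pre- and postemergence application, solvent/surfactant formulation; post at 1- to 4-leaf stage (2–18 cm). Greenhouse 12–14 d. Visual rating vs controls, 0 = no effect, 100 = complete control.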

kochia = test: Test C pre-/postemergence herbicide test; format: in vivo, Kochia scoparia; conditions: for Plant response rating, Kochia: preemergence
Method in brief: as §1

woolly cupgrass = test: Test C pre-/postemergence herbicide test; format: in vivo, Eriochloa villosa; conditions: for Plant response rating, Cupgrass, Woolly: preemergence
Method in brief: as §1

velvetleaf [1] = test: Test C pre-/postemergence herbicide test; format: in vivo, Abutilon theophrasti; conditions: for Plant response rating, Velvetleaf: preemergence
Method in brief: as §1

soybean = test: Test C pre-/postemergence herbicide test; format: in vivo, Glycine max; conditions: for Plant response rating, Soybean: preemergence
Method in brief: as §1

goosegrass = test: Test C pre-/postemergence herbicide test; format: in vivo, Eleusine indica; conditions: for Plant response rating, Goosegrass: preemergence
Method in brief: as §1

giant foxtail = test: Test C pre-/postemergence herbicide test; format: in vivo, Setaria faberi; conditions: for Plant response rating, Foxtail, Giant: preemergence
Method in brief: as §1

redroot pigweed = test: Test A pre-/postemergence herbicide test; format: in vivo, Amaranthus retroflexus
Method in brief: (§2)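 Visual injury rating on a 0–100 scale (0 no effect, 100 complete control) versus untreated controls, about ten days after treatment in greenhouse. Pre: directed soil spray onto seeded sandy loam. Post: spray to runoff on plants 2–10 cm tall at one- to two-leaf stage.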

velvetleaf [2] = test: Test A pre-/postemergence herbicide test; format: in vivo, Abutilon theophrasti
Method in brief: as §2

morningglory = test: Test C pre-/postemergence herbicide test; format: in vivo, Ipomoea coccinea; design: key to Plant response rating, Morningglory: 0 = no effect, 100 = complete control; conditions: for Plant response rating, Morningglory: preemergence
Method in brief: as §1

corn = test: Test C pre-/postemergence herbicide test; format: in vivo, Zea mays; conditions: for Plant response rating, Corn: preemergence
Method in brief: as §1

cocklebur = test: Test C pre-/postemergence herbicide test; format: in vivo, Xanthium strumarium; conditions: for Plant response rating, Cocklebur: preemergence; for Cocklebur plant response rating: Preemergence, 500 g ai/ha, scale 0 to 100, 0 no effect, 100 complete control
Method in brief: as §1

yellow nutsedge = test: Test C pre-/postemergence herbicide test; format: in vivo, Cyperus esculentus; conditions: for Plant response rating, Nutsedge, Yellow: preemergence
Method in brief: as §1

[3] = 62 g ai/ha, scale 0 to 100, 0 no effect, 100 complete control
[4] = 125 g ai/ha, scale 0 (no effect) to 100 (complete control), visual, 12 to 14 days
[5] = scale 0 to 100, 0 no effect, 100 complete control
[6] = Preemergence, 500 g ai/ha, scale 0 to 100, 0 no effect, 100 complete control
[7] = Postemergence, 500 g ai/ha, 0 to 100 scale, 0 no effect, 100 complete control
[8] = Postemergence, 2000 g ai/ha, 0 to 100 scale, 0 no effect, 100 complete control
[9] = Preemergence, 2000 g ai/ha, visual rating, 0 to 100 scale (0 no effect, 100 complete control)
[10] = preemergence, 500 g ai/ha, visual injury, 0 to 100 scale (0 no effect, 100 complete control)
[11] = 500 g ai/ha, scale 0 to 100 (0 no effect, 100 complete control), visual, 12 to 14 days

## CCNC(=O)c1cccc(NC(=O)c2sc(C(C)(C)C)nc2C)c1 [Compound 198]
bermudagrass; [3]
  Plant response rating, Bermudagrass: 60
bermudagrass; [4]
  Plant response rating, Bermudagrass: 85
bermudagrass; 250 g ai/ha, scale 0-100
  Plant response rating, Bermudagrass: 100
bermudagrass; [5]
  Bermudagrass plant response rating: 100
kochia; 62 g ai/ha, scale 0 to 100
  Plant response rating, Kochia: 50
kochia; [4]
  Plant response rating, Kochia: 80
kochia; 250 g ai/ha, scale 0-100
  Plant response rating, Kochia: 100
kochia; [6]
  Kochia plant response rating: 100
Woolly cupgrass; 62 g ai/ha, scale 0 to 100
  Plant response rating, Cupgrass, Woolly: 0
Woolly cupgrass; [4]
  Plant response rating, Cupgrass, Woolly: 5
Woolly cupgrass; 250 g ai/ha, scale 0-100
  Plant response rating, Cupgrass, Woolly: 10
Woolly cupgrass; [6]
  Cupgrass, Woolly plant response rating: 70
Velvetleaf [1]; 62 g ai/ha, scale 0 to 100
  Plant response rating, Velvetleaf: 5
Velvetleaf [1]; [4]
  Plant response rating, Velvetleaf: 80
Velvetleaf [1]; 250 g ai/ha, scale 0-100
  Plant response rating, Velvetleaf: 80
Velvetleaf [1]; [6]
  Velvetleaf plant response rating: 100
soybean; 62 g ai/ha, scale 0 to 100
  Plant response rating, Soybean: 0
soybean; [4]
  Plant response rating, Soybean: 0
soybean; 250 g ai/ha, scale 0-100
  Plant response rating, Soybean: 0
soybean; [6]
  Soybean plant response rating: 25
goosegrass; 62 g ai/ha, scale 0 to 100
  Plant response rating, Goosegrass: 20
goosegrass; [4]
  Plant response rating, Goosegrass: 80
goosegrass; 250 g ai/ha, scale 0-100
  Plant response rating, Goosegrass: 95
goosegrass; [6]
  Goosegrass plant response rating: 100
Giant foxtail; 62 g ai/ha, scale 0 to 100
  Plant response rating, Foxtail, Giant: 0
Giant foxtail; [4]
  Plant response rating, Foxtail, Giant: 10
Giant foxtail; 250 g ai/ha, scale 0-100
  Plant response rating, Foxtail, Giant: 60
Giant foxtail; [6]
  Foxtail, Giant plant response rating: 100
Redroot pigweed; [7]
  Pigweed plant response rating: 55
Redroot pigweed; [8]
  Plant response rating, Pigweed: 75
Redroot pigweed; [9]
  Pigweed plant response rating: 100
Redroot pigweed; [10]
  Pigweed plant response rating: 95
Velvetleaf [2]; [7]
  Velvetleaf plant response rating: 30
Velvetleaf [2]; [8]
  Plant response rating, Velvetleaf: 35
Velvetleaf [2]; [9]
  Velvetleaf plant response rating: 85
Velvetleaf [2]; [10]
  Velvetleaf plant response rating: 45
morningglory; 62 g ai/ha, scale 0 to 100
  Plant response rating, Morningglory: 10
morningglory; [4]
  Plant response rating, Morningglory: 70
morningglory; 250 g ai/ha, scale 0-100
  Plant response rating, Morningglory: 85
morningglory; [6]
  Morningglory plant response rating: 85
corn; 62 g ai/ha, scale 0 to 100
  Plant response rating, Corn: 0
corn; [4]
  Plant response rating, Corn: 0
corn; 250 g ai/ha, scale 0-100
  Plant response rating, Corn: 0
corn; [6]
  Corn plant response rating: 0
cocklebur; 62 g ai/ha, scale 0 to 100
  Plant response rating, Cocklebur: 0
cocklebur; [4]
  Plant response rating, Cocklebur: 0
cocklebur; 250 g ai/ha, scale 0-100
  Plant response rating, Cocklebur: 0
cocklebur
  Cocklebur plant response rating: 10
Yellow nutsedge; 62 g ai/ha, scale 0 to 100
  Plant response rating, Nutsedge, Yellow: 0
Yellow nutsedge; [4]
  Plant response rating, Nutsedge, Yellow: 0
Yellow nutsedge; 250 g ai/ha, scale 0-100
  Plant response rating, Nutsedge, Yellow: 0
Yellow nutsedge; [6]
  Nutsedge, Yellow plant response rating: 5

## CCNC(=O)c1cccc(NC(=O)c2sc(C(C)(C)C)nc2CC)n1 [Compound 213]
bermudagrass; [3]
  Plant response rating, Bermudagrass: 50
bermudagrass; [4]
  Plant response rating, Bermudagrass: 60
bermudagrass; 250 g ai/ha, scale 0-100
  Plant response rating, Bermudagrass: 80
bermudagrass; [5]
  Bermudagrass plant response rating: 90
kochia; [4]
  Plant response rating, Kochia: 85
kochia; 250 g ai/ha, scale 0-100
  Plant response rating, Kochia: 100
kochia; [11]
  Plant response rating, Kochia: 100
Woolly cupgrass; 62 g ai/ha, scale 0 to 100
  Plant response rating, Cupgrass, Woolly: 0
Woolly cupgrass; [4]
  Plant response rating, Cupgrass, Woolly: 0
Woolly cupgrass; 250 g ai/ha, scale 0-100
  Plant response rating, Cupgrass, Woolly: 0
Woolly cupgrass; [11]
  Plant response rating, Cupgrass, Woolly: 30
Velvetleaf [1]; 62 g ai/ha, scale 0 to 100
  Plant response rating, Velvetleaf: 0
Velvetleaf [1]; [4]
  Plant response rating, Velvetleaf: 0
Velvetleaf [1]; 250 g ai/ha, scale 0-100
  Plant response rating, Velvetleaf: 0
Velvetleaf [1]; [11]
  Plant response rating, Velvetleaf: 0
soybean; 62 g ai/ha, scale 0 to 100
  Plant response rating, Soybean: 0
soybean; [4]
  Plant response rating, Soybean: 0
soybean; 250 g ai/ha, scale 0-100
  Plant response rating, Soybean: 0
soybean; [11]
  Plant response rating, Soybean: 0
goosegrass; 62 g ai/ha, scale 0 to 100
  Plant response rating, Goosegrass: 0
goosegrass; [4]
  Plant response rating, Goosegrass: 60
goosegrass; 250 g ai/ha, scale 0-100
  Plant response rating, Goosegrass: 80
goosegrass; [11]
  Plant response rating, Goosegrass: 90
Giant foxtail; 62 g ai/ha, scale 0 to 100
  Plant response rating, Foxtail, Giant: 30
Giant foxtail; [4]
  Plant response rating, Foxtail, Giant: 50
Giant foxtail; 250 g ai/ha, scale 0-100
  Plant response rating, Foxtail, Giant: 95
Giant foxtail; [11]
  Plant response rating, Foxtail, Giant: 100
Redroot pigweed; [7]
  Pigweed plant response rating: 30
Redroot pigweed; [8]
  Plant response rating, Pigweed: 40
Redroot pigweed; [9]
  Pigweed plant response rating: 95
Redroot pigweed; [10]
  Pigweed plant response rating: 75
Velvetleaf [2]; [7]
  Velvetleaf plant response rating: 30
Velvetleaf [2]; [8]
  Plant response rating, Velvetleaf: 25
Velvetleaf [2]; [9]
  Velvetleaf plant response rating: 35
Velvetleaf [2]; [10]
  Velvetleaf plant response rating: 15
morningglory; 62 g ai/ha, scale 0 to 100
  Plant response rating, Morningglory: 0
morningglory; [4]
  Plant response rating, Morningglory: 0
morningglory; 250 g ai/ha, scale 0-100
  Plant response rating, Morningglory: 0
morningglory; [11]
  Plant response rating, Morningglory: 0
corn; 62 g ai/ha, scale 0 to 100
  Plant response rating, Corn: 0
corn; [4]
  Plant response rating, Corn: 0
corn; 250 g ai/ha, scale 0-100
  Plant response rating, Corn: 30
corn; [11]
  Plant response rating, Corn: 40
cocklebur; 250 g ai/ha, scale 0-100
  Plant response rating, Cocklebur: 100
cocklebur
  Cocklebur plant response rating: 100
Yellow nutsedge; 62 g ai/ha, scale 0 to 100
  Plant response rating, Nutsedge, Yellow: 0
Yellow nutsedge; [4]
  Plant response rating, Nutsedge, Yellow: 0
Yellow nutsedge; 250 g ai/ha, scale 0-100
  Plant response rating, Nutsedge, Yellow: 0
Yellow nutsedge; [11]
  Plant response rating, Nutsedge, Yellow: 0
